{"source": "patent US20200054651A1", "about": "“COMPOSITIONS AND METHODS FOR MODULATING PPP2R1A” (The Regents of the University of California, priority 2017, published 2020)", "assay_type_in_all_cases": "binding", "key": {"[1]": {"molecular_target": "T1, C328 on vimentin (Homo sapiens, UniProt P08670)", "T1 construct": "in vitro treatment of 231MFP breast cancer cell proteomes with withaferin A; endogenous in cells; host or cells: 231MFP breast cancer cells", "T1 sequence (P08670 whole entry)": "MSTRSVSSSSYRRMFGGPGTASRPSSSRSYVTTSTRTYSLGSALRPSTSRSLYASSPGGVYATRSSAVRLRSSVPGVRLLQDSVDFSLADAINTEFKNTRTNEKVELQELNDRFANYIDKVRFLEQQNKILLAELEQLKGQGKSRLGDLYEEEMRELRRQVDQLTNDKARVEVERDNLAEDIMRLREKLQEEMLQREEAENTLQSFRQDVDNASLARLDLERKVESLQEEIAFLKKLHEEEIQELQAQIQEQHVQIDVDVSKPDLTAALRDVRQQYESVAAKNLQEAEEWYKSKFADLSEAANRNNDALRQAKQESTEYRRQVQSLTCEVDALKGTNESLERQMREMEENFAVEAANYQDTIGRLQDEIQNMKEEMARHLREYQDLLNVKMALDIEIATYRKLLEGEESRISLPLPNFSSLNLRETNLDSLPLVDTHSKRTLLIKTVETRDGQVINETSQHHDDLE", "experiment": "Competitive isoTOP-ABPP in 231MFP proteomes in vitro", "details": "10 μM, in vitro treatment of 231MFP proteomes", "description": "IsoTOP-ABPP studies were performed using the methods described in “Nature 534(7608), 570-574 (2016)” by Backus K. M., et al. and “Nature 468(7325), 790-795 (2010)” by Weerapana E., et al. Proteome samples diluted in PBS were treated with Withaferin A or vehicle for 30 minutes at 37° C. Then, IAyne (iodoacetamide-alkyne) labeling was performed for 1 hour at room temperature. CuAAC was used by sequential addition of tris(2-carboxyethyl)phosphine (1 mM), tris[(1-benzyl-1H-1,2,3-triazol-4-yl)methyl]amine (34 μM), copper (II) sulfate (1 mM), and biotin-linker-azide where the linker was functionalized with a TEV protease recognition sequence along with an isotopically light or heavy valine for treatment of control or treated proteome, respectively. After click reactions, proteomes were precipitated by centrifugation at 6500×g, washed in ice-cold methanol, combined in a 1:1 control/treated ratio, washed again, then denatured and re-solubilized by heating in 1.2% SDS/PBS to 80° C. for 5 minutes. Insoluble components were precipitated by centrifugation at 6500×g and soluble proteome was diluted in 0.2% SDS/PBS (5 ml). Labeled proteins were bound to avidin-agarose beads (170 μl re-suspended beads/sample) while rotating overnight at 4° C. Bead-linked proteins were enriched by washing three times each in PBS and water, then re-suspended in urea/PBS (6 M), reduced in TCEP (1 mM), alkylated with iodoacetamide (18 mM), then washed and re-suspended in urea/PBS (2 M), and finally trypsinized overnight with 0.5 μg/μl sequencing grade trypsin. Tryptic peptides were eluted off. Beads were washed in PBS (3 times) and water (3 times), washed in TEV buffer solution (water, TEV buffer, 100 μM dithiothreitol), and re-suspended in buffer with Ac-TEV protease and then incubated overnight. Peptides were diluted in water, acidified with formic acid (1.2 M), and prepared for analysis.\nPeptides from all proteomic experiments were pressure-loaded onto an Agilent 600 series RP-HPLC system equipped with a capillary tubing (250 mm) packed with Aqua C18 reverse-phase resin (4 cm). The system was previously equilibrated with a gradient (0% B to 100% B over 10 minutes, 100% B for 5 minutes, then 0% B for 5 minutes; buffer A: 95:5 water:acetonitrile, 0.1% formic acid; buffer B: 80:20 acetonitrile:water, 0.1% formic acid). The samples were then attached using a MicroTee PEEK 360 μm fitting to a laser pulled column (13 cm) packed with Aqua C18 reverse-phase resin (10 cm) and strong-cation exchange resin (3 cm) for isoTOP-ABPP studies. Samples were analyzed using an Q Exactive Plus mass spectrometer using a 5-step Multidimensional Protein Identification Technology (MudPIT) program. […]"}, "[2]": {"molecular_target": "T2, TXNDC17 C43 (Homo sapiens, UniProt Q9BRA2)", "T2 construct": "IsoTOP-ABPP analysis of DKM 2-90 treatment in 231MFP cells in situ; endogenous in cells; host or cells: 231MFP cells", "T2 sequence (Q9BRA2 1-123)": "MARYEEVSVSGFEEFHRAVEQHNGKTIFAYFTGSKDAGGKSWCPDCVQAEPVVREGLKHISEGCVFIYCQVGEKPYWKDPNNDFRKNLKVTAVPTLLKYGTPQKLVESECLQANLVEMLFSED", "experiment": "isoTOP-ABPP after in situ treatment of 231MFP cells", "details": "100 μM, 4 h in 231MFP cells in situ", "description": "(§1) IsoTOP-ABPP studies were performed using the methods described in “Nature 534(7608), 570-574 (2016)” by Backus K. M., et al. and “Nature 468(7325), 790-795 (2010)” by Weerapana E., et al. […] Then, IAyne (iodoacetamide-alkyne) labeling was performed for 1 hour at room temperature. CuAAC was used by sequential addition of tris(2-carboxyethyl)phosphine (1 mM), tris[(1-benzyl-1H-1,2,3-triazol-4-yl)methyl]amine (34 μM), copper (II) sulfate (1 mM), and biotin-linker-azide where the linker was functionalized with a TEV protease recognition sequence along with an isotopically light or heavy valine for treatment of control or treated proteome, respectively. After click reactions, proteomes were precipitated by centrifugation at 6500×g, washed in ice-cold methanol, combined in a 1:1 control/treated ratio, washed again, then denatured and re-solubilized by heating in 1.2% SDS/PBS to 80° C. for 5 minutes. Insoluble components were precipitated by centrifugation at 6500×g and soluble proteome was diluted in 0.2% SDS/PBS (5 ml). Labeled proteins were bound to avidin-agarose beads (170 μl re-suspended beads/sample) while rotating overnight at 4° C. Bead-linked proteins were enriched by washing three times each in PBS and water, then re-suspended in urea/PBS (6 M), reduced in TCEP (1 mM), alkylated with iodoacetamide (18 mM), then washed and re-suspended in urea/PBS (2 M), and finally trypsinized overnight with 0.5 μg/μl sequencing grade trypsin. Tryptic peptides were eluted off. Beads were washed in PBS (3 times) and water (3 times), washed in TEV buffer solution (water, TEV buffer, 100 μM dithiothreitol), and re-suspended in buffer with Ac-TEV protease and then incubated overnight. Peptides were diluted in water, acidified with formic acid (1.2 M), and prepared for analysis.\n(§2) Peptides from all proteomic experiments were pressure-loaded onto an Agilent 600 series RP-HPLC system equipped with a capillary tubing (250 mm) packed with Aqua C18 reverse-phase resin (4 cm). The system was previously equilibrated with a gradient (0% B to 100% B over 10 minutes, 100% B for 5 minutes, then 0% B for 5 minutes; buffer A: 95:5 water:acetonitrile, 0.1% formic acid; buffer B: 80:20 acetonitrile:water, 0.1% formic acid). The samples were then attached using a MicroTee PEEK 360 μm fitting to a laser pulled column (13 cm) packed with Aqua C18 reverse-phase resin (10 cm) and strong-cation exchange resin (3 cm) for isoTOP-ABPP studies. Samples were analyzed using an Q Exactive Plus mass spectrometer using a 5-step Multidimensional Protein Identification Technology (MudPIT) program. The system was run using a gradient (5% B to 55% B; buffer A: 95:5 water:acetonitrile, 0.1% formic acid; buffer B: 80:20 acetonitrile:water, 0.1% formic acid), along with a salt bump feeding aqueous ammonium acetate (500 mM) at an increment of 0%, 25%, 50%, 80%, to 100%. Data was collected in data-dependent acquisition mode with dynamic exclusion enabled (60 sec). One full MS scan (400-1800 m/z) (MS1 scan) was conducted, followed by MS2 scan (ITMS) (15 times) of the most abundant ions. Heated capillary temperature was set to 200° C. and the nanospray voltage was set to 2.75 kV.\n(§3) Data was extracted in the form of MS1 and MS2 files using Raw Extractor 1.9.9.2 and searched against the Uniprot […] database using ProLuCID search methodology in IP2 v.3, described in “J Proteomics 129:16-24 (2015)” by Xu T, et al. Cysteine residues were searched with a static modification for carboxyaminomethylation (+m/z 57.02146), up to two differential modifications for methionine oxidation, and either the light or heavy TEV tags (+m/z 464.28596 or +m/z 470.29977, respectively). Peptides were required to have at least one tryptic end and to contain the TEV modification. ProLUCID data was filtered through DTASelect to achieve a peptide false-positive rate below 1%. […]"}, "[3]": {"molecular_target": "T3, CLIC4 C35 (Homo sapiens, UniProt Q9Y696)", "T3 construct": "IsoTOP-ABPP analysis of DKM 2-90 treatment in 231MFP cells in situ; endogenous in cells; host or cells: 231MFP cells", "T3 sequence (Q9Y696 whole entry)": "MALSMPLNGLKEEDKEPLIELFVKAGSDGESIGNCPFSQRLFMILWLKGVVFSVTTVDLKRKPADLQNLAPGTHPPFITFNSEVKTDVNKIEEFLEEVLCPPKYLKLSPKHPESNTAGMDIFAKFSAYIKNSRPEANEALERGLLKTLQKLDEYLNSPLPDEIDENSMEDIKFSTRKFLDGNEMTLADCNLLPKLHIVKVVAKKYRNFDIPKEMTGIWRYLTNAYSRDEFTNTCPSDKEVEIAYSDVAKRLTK", "experiment": "isoTOP-ABPP after in situ treatment of 231MFP cells", "details": "100 μM, 4 h in 231MFP cells in situ", "description": "as §1, §2, §3"}}, "data": [{"smiles": "CC1=C(CO)C(=O)O[C@@H]([C@@H](C)[C@H]2CC[C@H]3[C@@H]4C[C@H]5O[C@]56[C@@H](O)C=CC(=O)[C@]6(C)[C@H]4CC[C@]23C)C1", "note": "[withaferin A, reference compound]", "values": [{"measurement": "light to heavy ratio, C328 on vimentin", "setting": "[1]", "result": 1.0}]}, {"smiles": "O=C(CCl)Nc1ccc2c(c1)OCCO2", "note": "[DKM 2-90, 2-Chloro-N-(2,3-dihydrobenzo[β][1,4]dioxin-6-yl)acetamide]", "values": [{"measurement": "isotopically light to heavy ratio, TXNDC17 C43", "setting": "[2]", "result": "> 5"}, {"measurement": "isotopically light to heavy ratio, CLIC4 C35", "setting": "[3]", "result": "> 5"}]}]}
